# Where two headings read alike, the source gives them in different places.
# How the values were obtained:
# AURKA = biological target: T1, AURKA (Homo sapiens, UniProt O14965); assay type: cell-based
# T1 construct: endogenous in cells; host or cells: Jurkat cells
# T1 sequence (O14965 1-403): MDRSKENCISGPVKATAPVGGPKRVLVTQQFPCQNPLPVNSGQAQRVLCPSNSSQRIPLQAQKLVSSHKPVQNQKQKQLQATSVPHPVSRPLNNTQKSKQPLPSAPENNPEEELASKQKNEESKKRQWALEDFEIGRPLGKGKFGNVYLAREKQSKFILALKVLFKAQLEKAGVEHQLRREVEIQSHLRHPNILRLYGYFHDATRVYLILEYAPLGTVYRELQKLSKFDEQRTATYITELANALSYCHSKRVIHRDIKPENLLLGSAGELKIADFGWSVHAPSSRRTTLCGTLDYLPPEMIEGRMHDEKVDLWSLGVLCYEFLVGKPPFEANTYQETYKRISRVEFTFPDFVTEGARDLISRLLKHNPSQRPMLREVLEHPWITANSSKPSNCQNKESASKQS
# In short: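 Jurkat cells seeded at 1×10^6 cells/500 µL and treated with compound; lysates run on SDS-PAGE, blotted to nitrocellulose and probed overnight at 4°C for AURKA. Chemiluminescent or fluorescent band intensity fitted to a curve to give DC50 for protein degradation.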
# HCC1806 cells = assay: CTG assay of compound inhibition on cell viability (HCC1806 cells); assay type: cell-based; settings: Homo sapiens, read-out: IC50 in HCC1806 Cells
# Description: CellTiter-Glo (CTG) is a rapid cell viability test method based on ATP detection. […] Adenosine triphosphate (ATP) participates in various enzymatic reactions in organisms and is an indicator of living cell metabolism. Its content directly reflects the number of living cells and cell status. During the experiment, equal volume of CTG reagent is added to the cultured cells to measure the luminescence value. The chemiluminescent signal value is proportional to the amount of ATP, thus reflecting the number of viable cells. Therefore, cell viability can be obtained by detecting the ATP content. Compounds that affect cell viability will inhibit cell viability in a concentration-dependent manner, allowing a curve to be fitted to obtain the IC50 value.
# The experimental procedure is as follows: • 11. Place the cell suspension in a 15 mL centrifuge tube, centrifuge at 1000 rpm for 5 min at room temperature, discard the supernatant, and collect the cell pellet. • 12. Resuspend the cell pellet with preheated complete cell culture medium (RPMI1640+10%FBS+1%PS), and use a Countess® automated cell counter to detect cell viability and density. The cell viability must be above 90%. • 13. […] Transfer the compound solution to a 96-well plate seeded with cells (final concentration of DMSO 0.1%), and place in a cell incubator at 37°C, 5% CO2 for 6 days. • 15. […] Protect from light during the whole process. Perform optical signal readings using a SpectraMax i3x reader. • 16. Data analysis: Remaining activity (%) = 100% * (1 - ((LumDMSO - Lummedium) - Lumsample) / (LumDMSO - LumPBS/medium)). Use GraphPad Prism 9.0 software to draw an S-shaped dose-survival rate curve and calculate the IC50 value using a nonlinear regression model.
# [1] = 100 nM compound, Jurkat cells, 24 h, Table 1
# [2] = 1 µM compound, Jurkat cells, 24 h, Table 1
# [3] = 144 h, HCC1806 cells, 6 days, CellTiter-Glo
SMILES,Percentage of AURKA Degradation Induced by 100 nM Compound in Jurkat Cells (AURKA; [1]),Percentage of AURKA Degradation Induced by 1 µM Compound in Jurkat Cells (AURKA; [2]),"IC50 (HCC1806 cells; HCC1806, 144 h)",IC50 (HCC1806 cells; [3]),Percentage of AURKA Degradation Induced by 100 nM Compound in Jurkat Cells (AURKA),Percentage of AURKA Degradation Induced by 1 µM Compound in Jurkat Cells (AURKA)
COc1cccc(F)c1C1=NCc2cnc(Nc3ccc(C(=O)NCCN4CCN(c5ccc(N6CCC(=O)NC6=O)cn5)C(=O)C4)cc3)nc2-c2ccc(Cl)cc21 [Compound A65],+++ (Degradation > 70%),++ (30% < Degradation ≤ 70%),< 1000 nM,–,–,–
COc1cc(Nc2ncc3c(n2)-c2ccc(Cl)cc2C(c2c(F)cccc2OC)=NC3)ccc1C(=O)NC1CCC2(CC1)CN(c1ccc(N3CCC(=O)NC3=O)cc1)C2 [Compound A57],+++ (Degradation > 70%),+++ (Degradation > 70%),< 1000 nM,–,–,–
"COc1cc(Nc2ncc3c(n2)-c2ccc(Cl)cc2C(c2c(F)cccc2OC)=NC3)ccc1C(=O)O [alisertib, reference compound]",+ (Degradation ≤ 30%),+ (Degradation ≤ 30%),< 1000 nM,–,–,–
O=C1CCN(c2cccc(N3CC(CN4CC(NC(=O)c5ccc(Nc6ncc7c(n6)-c6ccc(Cl)cc6C(c6c(F)cccc6F)=NC7)cc5)C4)C3)c2)C(=O)N1 [Compound A72],+++ (Degradation > 70%),+++ (Degradation > 70%),< 1000 nM,–,–,–
COc1cc(Nc2ncc3c(n2)-c2ccc(Cl)cc2C(c2c(F)cccc2OC)=NC3)ccc1C(=O)NCCN1Cc2cc3c(cc2C1)C(=O)N(C1CCC(=O)NC1=O)C3=O (stereo not drawn) [Compound A17],+ (Degradation ≤ 30%),+ (Degradation ≤ 30%),< 1000 nM,–,–,–
COc1cc(Nc2ncc3c(n2)-c2ccc(Cl)cc2C(c2c(F)cccc2OC)=NC3)ccc1C(=O)N(C)CCCCCNc1cccc2c1C(=O)N(C1CCC(=O)NC1=O)C2=O (stereo not drawn) [Compound A2],++ (30% < Degradation ≤ 70%),++ (30% < Degradation ≤ 70%),–,< 1000 nM,–,–
COc1cc(Nc2ncc3c(n2)-c2ccc(Cl)cc2C(c2c(F)cccc2OC)=NC3)ccc1C(=O)NCCN1CCN(c2ccc(N3CCC(=O)NC3=O)cc2)CC1 [Compound A8],+++ (Degradation > 70%),+++ (Degradation > 70%),–,< 1000 nM,–,–
COc1cc(Nc2ncc3c(n2)-c2ccc(Cl)cc2C(c2c(F)cccc2OC)=NC3)ccc1C(=O)NCCN1CCC(n2cnc(N3CCC(=O)NC3=O)c2)CC1 [Compound A23],+ (Degradation ≤ 30%),+ (Degradation ≤ 30%),< 1000 nM,–,–,–
COc1cc(Nc2ncc3c(n2)-c2ccc(Cl)cc2C(c2c(F)cccc2OC)=NC3)ccc1C(=O)NC1CCN(Cc2ccc(N3CCC(=O)NC3=O)cc2)CC1 [Compound A28],+ (Degradation ≤ 30%),+ (Degradation ≤ 30%),< 1000 nM,–,–,–
O=C1CCN(c2ccc(N3CCN(CCNC(=O)c4ccc(Nc5ncc6c(n5)-c5ccc(Cl)cc5C(c5c(F)cccc5F)=NC6)cc4)CC3=O)nc2)C(=O)N1 [Compound A64],–,–,< 1000 nM,–,+++ (key: +: Degradation ≤ 30%; ++: 30% < Degradation ≤ 70%; +++: Degradation > 70%),++ (key: +: Degradation ≤ 30%; ++: 30% < Degradation ≤ 70%; +++: Degradation > 70%)
O=C1CCN(c2ccc(N3CC4(CC(NC(=O)c5ccc(Nc6ncc7c(n6)-c6ccc(Cl)cc6C(c6c(F)cccc6F)=NC7)cc5)C4)C3)cc2)C(=O)N1 [Compound A59],++ (30% < Degradation ≤ 70%),+++ (Degradation > 70%),< 1000 nM,–,–,–
COc1cc(Nc2ncc3c(n2)-c2ccc(Cl)cc2C(c2c(F)cccc2OC)=NC3)ccc1C(=O)NCCN1CCN(c2cccn3c(N4CCC(=O)NC4=O)cnc23)CC1 [Compound A21],+++ (Degradation > 70%),+++ (Degradation > 70%),< 1000 nM,–,–,–
COc1cc(Nc2ncc3c(n2)-c2ccc(Cl)cc2C(c2c(F)cccc2OC)=NC3)ccc1C(=O)NCCOCCNc1ccn2c(N3CCC(=O)NC3=O)cnc2c1 [Compound A32],+ (Degradation ≤ 30%),+ (Degradation ≤ 30%),> 10000 nM,–,–,–
O=C1CCN(c2ccc(N3CCN(CCNC(=O)c4ccc(Nc5ncc6c(n5)-c5ccc(Cl)cc5C(c5c(F)cccc5F)=NC6)cc4)CC34CC4)nc2)C(=O)N1 [Compound A66],+ (Degradation ≤ 30%),+ (Degradation ≤ 30%),< 1000 nM,–,–,–
O=C1CCN(c2cccc(N3CC(N4CC(NC(=O)c5ccc(Nc6ncc7c(n6)-c6ccc(Cl)cc6C(c6c(F)cccc6F)=NC7)cc5)C4)C3)c2)C(=O)N1 [Compound A74],++ (30% < Degradation ≤ 70%),++ (30% < Degradation ≤ 70%),< 1000 nM,–,–,–
O=C1CCN(c2cnc3c(N4CCN(CCNC(=O)c5ccc(Nc6ncc7c(n6)-c6ccc(Cl)cc6C(c6c(F)cccc6F)=NC7)cc5)CC4)cccn23)C(=O)N1 [Compound A22],+++ (Degradation > 70%),+++ (Degradation > 70%),< 1000 nM,–,–,–
O=C1CCN(c2cnc(N3CCC4(CC3)CC(NC(=O)c3ccc(Nc5ncc6c(n5)-c5ccc(Cl)cc5C(c5c(F)cccc5F)=NC6)cc3)C4)s2)C(=O)N1 [Compound A81],+++ (Degradation > 70%),+++ (Degradation > 70%),< 1000 nM,–,–,–
COc1cc(Nc2ncc3c(n2)-c2ccc(Cl)cc2C(c2c(F)cccc2OC)=NC3)ccc1C(=O)NC1CC2(C1)CN(c1ccc(N3CCC(=O)NC3=O)cc1)C2 [Compound A58],++ (30% < Degradation ≤ 70%),++ (30% < Degradation ≤ 70%),< 1000 nM,–,–,–
O=C1CCN(c2ccc(N3CCC4(CC3)CC(NC(=O)c3ccc(Nc5ncc6c(n5)-c5ccc(Cl)cc5C(c5c(F)cccc5F)=NC6)cc3)C4)nc2)C(=O)N1 [Compound A55],+++ (Degradation > 70%),+++ (Degradation > 70%),< 1000 nM,–,–,–
O=C1CCN(c2ccc(N3CC(CN4CC(NC(=O)c5ccc(Nc6ncc7c(n6)-c6ccc(Cl)cc6C(c6c(F)cccc6F)=NC7)cc5)C4)C3)cc2)C(=O)N1 [Compound A70],+++ (Degradation > 70%),+++ (Degradation > 70%),< 1000 nM,–,–,–
COc1cc(Nc2ncc3c(n2)-c2ccc(Cl)cc2C(c2c(F)cccc2OC)=NC3)ccc1C(=O)N1CC2(CCN(c3ccc(N4CCC(=O)NC4=O)cc3)CC2)C1 [Compound A42],+ (Degradation ≤ 30%),+ (Degradation ≤ 30%),> 10000 nM,–,–,–
O=C1CCN(c2ccc(N3CCN(CCNC(=O)c4ccc(Nc5ncc6c(n5)-c5ccc(Cl)cc5C(c5c(F)cccc5F)=NC6)cc4)CC3)cc2)C(=O)N1 [Compound A10],++ (30% < Degradation ≤ 70%),++ (30% < Degradation ≤ 70%),< 1000 nM,–,–,–
O=C1CCN(c2ccc(N3CCC4(CC3)CC(NC(=O)c3ccc(Nc5ncc6c(n5)-c5ccc(Cl)cc5C(c5c(F)cccc5F)=NC6)cc3)C4)cc2)C(=O)N1 [Compound A37],+++ (Degradation > 70%),+++ (Degradation > 70%),< 1000 nM,–,–,–
